From ChEMBL document CHEMBL5120855, “Potent 2,3-dihydrophthalazine-1,4-dione derivatives as dual inhibitors for mono-ADP-ribosyltransferases PARP10 and PARP15” (Eur J Med Chem, 2022)
pEC50, pIC50: −log10 of the molar value.

What was measured:
[1] = molecular target: Poly [ADP-ribose] polymerase 1 (Homo sapiens, UniProt P09874); test: Inhibition of human PARP-1 using NAD+ as substrate incubated for 10 mins by fluorescence based analysis
[2] = molecular target: T1, Poly [ADP-ribose] polymerase tankyrase-1 (Homo sapiens, UniProt O95271); test: Inhibition of human TNKS1
T1 sequence (O95271 whole entry): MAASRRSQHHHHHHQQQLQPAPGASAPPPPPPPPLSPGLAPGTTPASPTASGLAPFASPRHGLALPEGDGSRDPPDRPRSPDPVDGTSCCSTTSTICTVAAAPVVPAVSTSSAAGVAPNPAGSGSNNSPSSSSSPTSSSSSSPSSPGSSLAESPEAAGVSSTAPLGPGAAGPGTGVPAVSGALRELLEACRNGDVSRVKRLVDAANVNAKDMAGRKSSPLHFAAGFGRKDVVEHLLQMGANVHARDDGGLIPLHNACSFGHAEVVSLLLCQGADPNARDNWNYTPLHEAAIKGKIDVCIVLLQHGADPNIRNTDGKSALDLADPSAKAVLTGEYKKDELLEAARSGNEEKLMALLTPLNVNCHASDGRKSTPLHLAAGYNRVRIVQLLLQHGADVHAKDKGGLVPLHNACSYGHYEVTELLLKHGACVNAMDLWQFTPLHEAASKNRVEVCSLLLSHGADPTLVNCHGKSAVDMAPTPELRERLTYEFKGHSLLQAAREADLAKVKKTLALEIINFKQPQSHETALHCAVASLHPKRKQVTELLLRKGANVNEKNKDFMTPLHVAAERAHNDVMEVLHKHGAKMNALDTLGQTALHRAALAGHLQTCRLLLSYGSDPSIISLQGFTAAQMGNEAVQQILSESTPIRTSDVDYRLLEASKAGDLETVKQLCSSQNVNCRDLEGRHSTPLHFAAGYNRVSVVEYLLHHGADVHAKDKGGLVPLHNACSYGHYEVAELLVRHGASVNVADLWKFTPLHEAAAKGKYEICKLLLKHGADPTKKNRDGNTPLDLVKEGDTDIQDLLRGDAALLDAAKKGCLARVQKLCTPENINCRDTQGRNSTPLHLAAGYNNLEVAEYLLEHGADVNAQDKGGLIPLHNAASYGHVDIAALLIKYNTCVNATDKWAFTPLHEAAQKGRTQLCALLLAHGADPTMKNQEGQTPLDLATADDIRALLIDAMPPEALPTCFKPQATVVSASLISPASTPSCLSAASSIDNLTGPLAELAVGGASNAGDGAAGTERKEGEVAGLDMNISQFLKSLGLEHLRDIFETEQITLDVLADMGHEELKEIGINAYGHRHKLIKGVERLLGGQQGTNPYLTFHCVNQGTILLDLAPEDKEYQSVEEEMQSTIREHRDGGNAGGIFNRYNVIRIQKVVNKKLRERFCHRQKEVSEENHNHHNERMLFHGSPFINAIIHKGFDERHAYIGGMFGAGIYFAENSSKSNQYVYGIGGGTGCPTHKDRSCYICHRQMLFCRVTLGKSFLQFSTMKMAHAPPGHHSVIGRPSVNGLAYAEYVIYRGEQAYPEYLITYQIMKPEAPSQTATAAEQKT

[3] = molecular target: T2, Protein mono-ADP-ribosyltransferase PARP12 (Homo sapiens, UniProt Q9H0J9); test: Inhibition of human PARP12
T2 sequence (Q9H0J9 whole entry): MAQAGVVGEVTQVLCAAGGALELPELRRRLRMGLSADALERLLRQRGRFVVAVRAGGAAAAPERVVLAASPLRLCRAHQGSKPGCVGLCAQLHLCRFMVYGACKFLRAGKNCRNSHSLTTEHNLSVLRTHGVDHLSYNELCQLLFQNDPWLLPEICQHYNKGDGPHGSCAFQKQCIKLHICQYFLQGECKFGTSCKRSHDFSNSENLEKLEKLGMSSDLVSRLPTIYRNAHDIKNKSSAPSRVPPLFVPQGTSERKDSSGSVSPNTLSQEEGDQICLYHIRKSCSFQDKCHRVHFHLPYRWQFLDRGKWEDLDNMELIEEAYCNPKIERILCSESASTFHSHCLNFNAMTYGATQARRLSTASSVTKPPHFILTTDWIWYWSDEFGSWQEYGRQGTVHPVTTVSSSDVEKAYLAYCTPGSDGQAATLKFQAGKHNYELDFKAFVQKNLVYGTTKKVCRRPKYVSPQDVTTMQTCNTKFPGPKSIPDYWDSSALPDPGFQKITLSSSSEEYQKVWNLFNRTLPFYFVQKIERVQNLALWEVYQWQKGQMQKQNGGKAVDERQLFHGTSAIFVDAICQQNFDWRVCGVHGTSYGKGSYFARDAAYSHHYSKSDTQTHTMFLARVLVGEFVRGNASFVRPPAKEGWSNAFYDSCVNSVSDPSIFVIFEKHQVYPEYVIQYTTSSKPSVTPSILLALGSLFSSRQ

[4] = molecular target: T3, Protein mono-ADP-ribosyltransferase PARP16 (Homo sapiens, UniProt Q8N5Y8); test: Inhibition of human PARP16
T3 sequence (Q8N5Y8 whole entry): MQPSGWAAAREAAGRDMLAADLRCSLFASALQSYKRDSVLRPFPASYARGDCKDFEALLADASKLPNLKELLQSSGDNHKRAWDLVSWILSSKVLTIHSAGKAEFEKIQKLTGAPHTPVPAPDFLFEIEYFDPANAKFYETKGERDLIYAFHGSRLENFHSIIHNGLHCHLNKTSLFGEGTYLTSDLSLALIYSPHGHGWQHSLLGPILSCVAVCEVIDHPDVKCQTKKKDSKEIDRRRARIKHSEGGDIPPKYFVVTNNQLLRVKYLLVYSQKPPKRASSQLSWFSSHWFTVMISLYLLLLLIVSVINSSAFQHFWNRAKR

[5] = system: HeLa; test: Rescue of cell viability in human HeLa cells expressing wild type PARP10 at upto 10 uM incubated for 10 to 12 days by methylene blue dye based colony formation assay; format: functional

Sequence of Poly [ADP-ribose] polymerase 1 (P09874 whole entry): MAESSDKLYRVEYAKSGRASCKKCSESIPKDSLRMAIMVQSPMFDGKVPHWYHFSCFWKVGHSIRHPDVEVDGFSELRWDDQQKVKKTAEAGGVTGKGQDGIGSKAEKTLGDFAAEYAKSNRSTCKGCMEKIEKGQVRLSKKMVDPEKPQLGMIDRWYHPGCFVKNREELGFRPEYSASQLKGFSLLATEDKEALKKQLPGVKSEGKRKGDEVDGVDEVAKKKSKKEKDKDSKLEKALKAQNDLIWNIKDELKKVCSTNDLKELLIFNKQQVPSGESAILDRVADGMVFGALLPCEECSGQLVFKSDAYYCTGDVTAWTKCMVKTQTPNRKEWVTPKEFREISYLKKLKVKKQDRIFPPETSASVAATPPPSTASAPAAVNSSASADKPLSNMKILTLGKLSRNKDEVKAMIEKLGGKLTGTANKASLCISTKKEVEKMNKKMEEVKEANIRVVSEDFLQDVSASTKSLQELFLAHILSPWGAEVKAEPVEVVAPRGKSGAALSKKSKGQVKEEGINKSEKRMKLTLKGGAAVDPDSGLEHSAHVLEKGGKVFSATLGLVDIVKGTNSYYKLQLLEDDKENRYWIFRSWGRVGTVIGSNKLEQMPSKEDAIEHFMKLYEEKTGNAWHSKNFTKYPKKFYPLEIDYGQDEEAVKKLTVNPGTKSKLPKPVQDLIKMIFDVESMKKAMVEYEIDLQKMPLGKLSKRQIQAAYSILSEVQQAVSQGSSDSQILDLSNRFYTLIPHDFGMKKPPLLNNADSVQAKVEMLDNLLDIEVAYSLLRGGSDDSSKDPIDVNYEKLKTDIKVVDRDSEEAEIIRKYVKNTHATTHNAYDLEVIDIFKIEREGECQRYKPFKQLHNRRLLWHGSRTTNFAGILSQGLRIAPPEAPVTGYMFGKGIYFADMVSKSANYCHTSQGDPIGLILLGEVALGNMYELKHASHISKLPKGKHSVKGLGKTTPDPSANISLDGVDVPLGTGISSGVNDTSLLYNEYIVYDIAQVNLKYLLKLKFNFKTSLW

- pIC50 [1]: < 4.00
- pIC50 [2]: < 4.00
- pIC50 [3]: < 5.00
- pIC50 [4]: < 5.00
- pEC50 [5]: 6.23
SMILES: NC(=O)c1ccc(OCC2CCC2)cc1
